Results from patent publication US9140688B2, “Sperm staining and sorting methods” (INGURAN, LLC, priority 2011, dated 2015).

Experiments:
[1] = solvent water; shorter-wavelength local maximum; cited from earlier work
[2] = tested on: membrane compromised bovine sperm stained with Hoechst 33342; experiment: Dead quenching: dead gate intensity divided by live gate intensity, flow cytometry of stained bovine sperm; assay type: cell-based; conditions: for Dead Intensity (dead gate intensity divided by live gate intensity): Ex 5; for Intensity (dead gate): Ex 6, resulting pH 6.70, Hoechst 48 μM
Outline: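 Bovine sperm stained with Hoechst 33342 (48–64 μM effective) in pH 7.4 TALP at 34° C for 60 min, then mixed 1:1 with pH 5.60 TALP containing quenching dye and held ~30 min at room temperature. Read on a MoFlo SX sorter; value is dead gate intensity divided by live gate intensity as a percentage, lower meaning more quenching.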

[3] = tested on: X- and Y-chromosome bearing bovine sperm stained with Hoechst 33342; experiment: Split quality: height of peak divided by height of valley (PV), flow cytometry of stained bovine sperm; assay type: cell-based; conditions: for Height of Peak/Height of Valley: Ex 5; for Height of Peak Divided by Height of Valley: Ex 7, Yellow 6 62 μM, Phenol Red 0 μM
[4] = dye 25 μM, Average of Hoechst levels
[5] = dye 62.5 μM, Average of Hoechst levels
[6] = dye 62.5 μM, Hoechst 12 μL/2 mL
[7] = dye 62.5 μM, Hoechst 14 μL/2 mL
[8] = dye 62.5 μM, Hoechst 16 μL/2 mL
[9] = dye 125 μM, Average of Hoechst levels
[10] = dye 25 μM, Average of 12 and 14 μL series
[11] = dye 62.5 μM, Average of 12 and 14 μL series
[12] = dye 125 μM, Average of 12 and 14 μL series
[13] = Ex 6, dye 62.5 μM, resulting pH 6.70, Hoechst 48 μM

O=S(=O)([O-])c1ccc(N=Nc2c(O)ccc3cc(S(=O)(=O)[O-])ccc23)cc1.[Na+].[Na+] [Yellow 6, Disodium 6-hydroxy-5-[(4-sulfophenyl)azo]-2-naphthalenesulfononate]
Expected Absorption Maxima [1]: 480 nm
Dead Intensity (dead gate intensity divided by live gate intensity) [2, 4]: 71%
Dead Intensity (dead gate intensity divided by live gate intensity) ([2]; dye 25 μM, Hoechst 12 μL/2 mL): 68%
Dead Intensity (dead gate intensity divided by live gate intensity) ([2]; dye 25 μM, Hoechst 14 μL/2 mL): 74%
Dead Intensity (dead gate intensity divided by live gate intensity) ([2]; dye 25 μM, Hoechst 16 μL/2 mL): 70%
Dead Intensity (dead gate intensity divided by live gate intensity) [2, 5]: 51%
Dead Intensity (dead gate intensity divided by live gate intensity) [2, 6]: 50%
Dead Intensity (dead gate intensity divided by live gate intensity) [2, 7]: 52%
Dead Intensity (dead gate intensity divided by live gate intensity) [2, 8]: 52%
Dead Intensity (dead gate intensity divided by live gate intensity) [2, 9]: 39%
Dead Intensity (dead gate intensity divided by live gate intensity) ([2]; dye 125 μM, Hoechst 12 μL/2 mL): 37%
Dead Intensity (dead gate intensity divided by live gate intensity) ([2]; dye 125 μM, Hoechst 14 μL/2 mL): 40%
Dead Intensity (dead gate intensity divided by live gate intensity) ([2]; dye 125 μM, Hoechst 16 μL/2 mL): 40%
Intensity (dead gate) ([2]; dye 62.5 μM): 50%
quenching of the dead population compared to red food dye No. 40 (FIG. 3) ([2]; three bulls, equal amounts of Hoechst 33342 and of dye): superior quenching
Height of Peak/Height of Valley [3, 10]: 2.06
Height of Peak/Height of Valley ([3]; dye 25 μM, Hoechst 12 μL/2 mL): 2.05
Height of Peak/Height of Valley ([3]; dye 25 μM, Hoechst 14 μL/2 mL): 2.07
Height of Peak/Height of Valley ([3]; dye 25 μM, Hoechst 16 μL/2 mL): 1.13
Height of Peak/Height of Valley [3, 11]: 1.66
Height of Peak/Height of Valley [3, 6]: 1.70
Height of Peak/Height of Valley [3, 7]: 1.62
Height of Peak/Height of Valley [3, 8]: 1.00
Height of Peak/Height of Valley [3, 12]: 1.77
Height of Peak/Height of Valley ([3]; dye 125 μM, Hoechst 12 μL/2 mL): 1.73
Height of Peak/Height of Valley ([3]; dye 125 μM, Hoechst 14 μL/2 mL): 1.80
Height of Peak/Height of Valley ([3]; dye 125 μM, Hoechst 16 μL/2 mL): 1.26
PV [3, 13]: 1.00
Height of Peak Divided by Height of Valley ([3]; cells 100 million per mL): 1.26
Height of Peak Divided by Height of Valley ([3]; cells 150 million per mL): 1.30
Height of Peak Divided by Height of Valley ([3]; cells 250 million per mL): 1.25
Height of Peak Divided by Height of Valley ([3]; cells 300 million per mL): 1.23
PV ([3]; Ex 8, Bull 1, Hoechst 44 μM, Y6 50 μM alone): 1.20
PV ([3]; Ex 8, Bull 1, Hoechst 60 μM, Y6 50 μM alone): 1.39
PV ([3]; Ex 8, Bull 2, Hoechst 28 μM, Y6 50 μM alone): 1.64
PV ([3]; Ex 8, Bull 2, Hoechst 44 μM, Y6 50 μM alone): 1.35
PV ([3]; Ex 8, Bull 2, Hoechst 60 μM, Y6 50 μM alone): 1.35
PV ([3]; Ex 8, Bull 2, Hoechst 60 μM, Y6 375 μM alone): 1.72
PV ([3]; Ex 9, Bull 3, Hoechst 60 μM, Y6 50 μM, R3 0 μM, first Y6 series): 1.26
PV ([3]; Ex 9, Bull 3, Hoechst 60 μM, Y6 50 μM, R3 0 μM, second Y6 series): 1.32

COc1cc(S(=O)(=O)O)c(C)cc1N=Nc1c(O)ccc2cc(S(=O)(=O)O)ccc12 [Red 40, 6-hydroxy-5-[(2-methoxy-5-methyl-4-sulfophenyl)azo]-2-naphthalenesulfonic acid, reference compound]
Expected Absorption Maxima [1]: 505 nm
Dead Intensity (dead gate intensity divided by live gate intensity) [2, 4]: 68%
Dead Intensity (dead gate intensity divided by live gate intensity) ([2]; dye 25 μM, Hoechst 12 μL/2 mL): 68%
Dead Intensity (dead gate intensity divided by live gate intensity) ([2]; dye 25 μM, Hoechst 14 μL/2 mL): 72%
Dead Intensity (dead gate intensity divided by live gate intensity) ([2]; dye 25 μM, Hoechst 16 μL/2 mL): 65%
Dead Intensity (dead gate intensity divided by live gate intensity) [2, 5]: 52%
Dead Intensity (dead gate intensity divided by live gate intensity) [2, 6]: 53%
Dead Intensity (dead gate intensity divided by live gate intensity) [2, 7]: 53%
Dead Intensity (dead gate intensity divided by live gate intensity) [2, 8]: 50%
Dead Intensity (dead gate intensity divided by live gate intensity) [2, 9]: 38%
Dead Intensity (dead gate intensity divided by live gate intensity) ([2]; dye 125 μM, Hoechst 12 μL/2 mL): 37%
Dead Intensity (dead gate intensity divided by live gate intensity) ([2]; dye 125 μM, Hoechst 14 μL/2 mL): 41%
Dead Intensity (dead gate intensity divided by live gate intensity) ([2]; dye 125 μM, Hoechst 16 μL/2 mL): 35%
Intensity (dead gate) ([2]; dye 62.5 μM): 53%
Height of Peak/Height of Valley [3, 10]: 2.00
Height of Peak/Height of Valley ([3]; dye 25 μM, Hoechst 12 μL/2 mL): 2.05
Height of Peak/Height of Valley ([3]; dye 25 μM, Hoechst 14 μL/2 mL): 1.94
Height of Peak/Height of Valley ([3]; dye 25 μM, Hoechst 16 μL/2 mL): 1.00
Height of Peak/Height of Valley [3, 11]: 1.64
Height of Peak/Height of Valley [3, 6]: 1.65
Height of Peak/Height of Valley [3, 7]: 1.62
Height of Peak/Height of Valley [3, 8]: 1.00
Height of Peak/Height of Valley [3, 12]: 1.88
Height of Peak/Height of Valley ([3]; dye 125 μM, Hoechst 12 μL/2 mL): 1.75
Height of Peak/Height of Valley ([3]; dye 125 μM, Hoechst 14 μL/2 mL): 2.00
Height of Peak/Height of Valley ([3]; dye 125 μM, Hoechst 16 μL/2 mL): 1.21
PV [3, 13]: 1.00
PV ([3]; Ex 8, Bull 1, Hoechst 60 μM, R40 20 μM alone): 1.62
PV ([3]; Ex 8, Bull 2, Hoechst 44 μM, R40 20 μM alone): 1.54
PV ([3]; Ex 9, Bull 3, Hoechst 60 μM, R40 50 μM, R3 0 μM): 1.44
